# Assay results taken from the supplement of paper PMC7244745.
# ± gives the uncertainty stated by the source.
# Experiments:
# [1] = tested on: Klebsiella pneumoniae ATCC 13882; test: final OD630 (growth) after 24 h; higher = more bacterial growth; extreme values may be limits of the assay
# Protocol: (§1)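 Klebsiella pneumoniae ATCC 13882 (start OD600 0.05) grown in M9U medium with 40 mM urea and phenol red plus inhibitor, in triplicate in 96-well plates. A557 and OD630 were read every 15 min for 24 h. Ureolysis was followed as the pH-related A557-A630: onset time, Gompertz-fit rate and final value. Growth was followed as OD630.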
# [2] = tested on: Klebsiella pneumoniae ATCC 13882; test: final pH-related absorbance (A557-A630) after 24 h (absorbance units); higher = more ureolysis; extreme values may be limits of the assay
# Protocol: as §1
# [3] = tested on: Klebsiella pneumoniae ATCC 13882; test: onset of ureolytic pH increase; higher = more delayed ureolysis (inhibition)
# Protocol: as §1
# [4] = tested on: Klebsiella pneumoniae ATCC 13882; test: rate of pH (A557-A630) increase, Gompertz fit (10^-4 s-1); higher = faster ureolysis; extreme values may be limits of the assay
# Protocol: as §1
Structure (SMILES),final OD630 ([1]; 0.1 mM),final OD630 ([1]; 1 mM),final OD630 ([1]; 10 mM),final pH-related absorbance ([2]; 0.1 mM),final pH-related absorbance ([2]; 1 mM),final pH-related absorbance ([2]; 10 mM),onset of ureolytic pH increase ([3]; 0.1 mM) [h],onset of ureolytic pH increase ([3]; 1 mM) [h],onset of ureolytic pH increase ([3]; 10 mM),rate of pH ([4]; 0.1 mM),rate of pH ([4]; 1 mM),rate of pH ([4]; 10 mM),further results
NC(=O)CC[C@H](N)C(=O)O [L-glutamine],–,–,–,–,–,–,–,–,–,–,–,–,final OD630 ([1]; 0.009 mM): 0.515 ± 0.01; final OD630 ([1]; 0.091 mM): 0.549 ± 0.014; final OD630 ([1]; 9.06 mM): 0.531 ± 0.0093; final pH-related absorbance ([2]; 0.009 mM): 0.223 ± 0.0054; final pH-related absorbance ([2]; 0.091 mM): 0.219 ± 0.005; final pH-related absorbance ([2]; 9.06 mM): 0.222 ± 0.0029; onset of ureolytic pH increase ([3]; 0.009 mM): 9.446 ± 0.0567 h; onset of ureolytic pH increase ([3]; 0.091 mM): 9.264 ± 0.03 h; onset of ureolytic pH increase ([3]; 9.06 mM): 9.369 ± 0.065 h; rate of pH ([4]; 0.009 mM): 1.675 ± 0.015; rate of pH ([4]; 0.091 mM): 1.74 ± 0.052; rate of pH ([4]; 9.06 mM): 1.78 ± 0.018
c1c[nH]cn1 [Imidazole],0.423 ± 0.0002,0.42 ± 0.0034,0.439 ± 0.0039,0.163 ± 0.0003,0.164 ± 0.0067,0.169 ± 0.0015,9.38 ± 0.0583,9.42 ± 0.118,10.32 ± 0.0533 h,1.457 ± 0.0067,1.48 ± 0.046,1.43 ± 0.029,–
C=C(CC)C(=O)c1ccc(OCC(=O)O)c(Cl)c1Cl [Ethacrynic acid],0.437 ± 0.0002,0.44 ± 0.0048,0,0.139 ± 0.0023,0.128 ± 0.018,0.294 ± 0.0059,11.62 ± 0.06,12.6 ± 1.67,0 min,1.57 ± 0.073,1.49 ± 0.037,0.033 ± 0.0006,–
C=CCNC(N)=S [Allylthiourea],0.417 ± 0.013,0.397 ± 0.015,0.366 ± 0.0047,0.159 ± 0.0052,0.154 ± 0.0052,0.135 ± 0.0034,9.392 ± 0.0683,9.93 ± 0.483,12.93 ± 0.123 h,1.47 ± 0.046,1.454 ± 0.0015,1.383 ± 0.0037,–
O=C1CC(=O)NC(=S)N1 [2-Thiobarbituric acid],–,–,–,–,–,–,–,–,–,–,–,–,final OD630 ([1]; 0.012 mM): 0.449 ± 0.007; final OD630 ([1]; 0.118 mM): 0.437 ± 0.008; final OD630 ([1]; 1.18 mM): 0.303 ± 0.028; final pH-related absorbance ([2]; 0.012 mM): 0.201 ± 0.008; final pH-related absorbance ([2]; 0.118 mM): 0.194 ± 0.006; final pH-related absorbance ([2]; 1.18 mM): 0; onset of ureolytic pH increase ([3]; 0.012 mM): 9.28 ± 0.0217 h; onset of ureolytic pH increase ([3]; 0.118 mM): 9.68 ± 0.4 h; onset of ureolytic pH increase ([3]; 1.18 mM): > 15 h; rate of pH ([4]; 0.012 mM): 2.14 ± 0.06; rate of pH ([4]; 0.118 mM): 2.04 ± 0.024; rate of pH ([4]; 1.18 mM): 0
O=[N+]([O-])C(Br)(CO)CO [2-bromo-2-nitropropane-1.3-diol],0,0,0,0,0,0,> 25,> 25,> 25 h,0,0,0,–
N=C(N)NCCC[C@H](N)C(=O)O [L-arginine],–,–,–,–,–,–,–,–,–,–,–,–,final OD630 ([1]; 0.094 mM): 0.472 ± 0.003; final OD630 ([1]; 0.943 mM): 0.52 ± 0.0037; final OD630 ([1]; 9.43 mM): 0.519 ± 0.0064; final pH-related absorbance ([2]; 0.094 mM): 0.23 ± 0.0075; final pH-related absorbance ([2]; 0.943 mM): 0.238 ± 0.0024; final pH-related absorbance ([2]; 9.43 mM): 0.307 ± 0.0066; onset of ureolytic pH increase ([3]; 0.094 mM): 10.601 ± 0.004 h; onset of ureolytic pH increase ([3]; 0.943 mM): 9.309 ± 0.0733 h; onset of ureolytic pH increase ([3]; 9.43 mM): 9.875 ± 0.0417 h; rate of pH ([4]; 0.094 mM): 1.72 ± 0.018; rate of pH ([4]; 0.943 mM): 1.69 ± 0.018; rate of pH ([4]; 9.43 mM): 1.66 ± 0.021
Oc1ccccc1O [Pyrocatechol],0.425 ± 0.0055,0.462 ± 0.0061,0,0.397 ± 0.0008,0.369 ± 0.011,–,11.07 ± 0.07,14.6 ± 0.35,–,1.789 ± 0.015,1.74 ± 0.016,–,–
NP(N)(=O)Oc1ccccc1 [Phenyl phosphorodiamidate],–,–,–,–,–,–,–,–,–,–,–,–,final OD630 ([1]; 0.007 mM): 0.421 ± 0.0059; final OD630 ([1]; 0.07 mM): 0.4185 ± 0.004; final OD630 ([1]; 0.7 mM): 0.384 ± 0.01; final pH-related absorbance ([2]; 0.007 mM): 0; final pH-related absorbance ([2]; 0.07 mM): 0; final pH-related absorbance ([2]; 0.7 mM): 0; onset of ureolytic pH increase ([3]; 0.007 mM): > 15 h; onset of ureolytic pH increase ([3]; 0.07 mM): > 15 h; onset of ureolytic pH increase ([3]; 0.7 mM): > 15 h; rate of pH ([4]; 0.007 mM): 0; rate of pH ([4]; 0.07 mM): 0; rate of pH ([4]; 0.7 mM): 0
[K+].[O]=[Mn](=[O])(=[O])[O-] [Potassium permanganate],0.444 ± 0.0025,0,–,0.062 ± 0.0044,0,–,11.35 ± 0.107,> 25,–,1.65 ± 0.032,0,–,–
CC(=O)NC(N)=S [Acetylthiourea],–,–,–,–,–,–,–,–,–,–,–,–,final OD630 ([1]; 0.05 mM): 0.491 ± 0.011; final OD630 ([1]; 0.5 mM): 0.491 ± 0.004; final OD630 ([1]; 5 mM): 0.507 ± 0.021; final pH-related absorbance ([2]; 0.05 mM): 0.241 ± 0.011; final pH-related absorbance ([2]; 0.5 mM): 0.246 ± 0.002; final pH-related absorbance ([2]; 5 mM): 0.284 ± 0.05; onset of ureolytic pH increase ([3]; 0.05 mM): 7.13 ± 0.148 h; onset of ureolytic pH increase ([3]; 0.5 mM): 7.095 ± 0.065 h; onset of ureolytic pH increase ([3]; 5 mM): 6.92 ± 0.267 h; rate of pH ([4]; 0.05 mM): 2 ± 0.057; rate of pH ([4]; 0.5 mM): 2.03 ± 0.042; rate of pH ([4]; 5 mM): 2.62 ± 0.37
